In patent US10023554B2, “Halogen-substituted heterocyclic compound salt” (UBE INDUSTRIES, LTD., priority 2014, dated 2018):

System: A2058 human melanoma cells
Experiment: Cell migration test (LPA-induced migration, Chemo-Tx)
Assay type: cell-based
Conditions: LPA final concentration 100 nM, 3 hours at 37° C., read-out: concentration (IC50) of the test compound required for 50% inhibition of the cell migration activity of LPA
Description: The cell migration test was carried out using Chemo-Tx (registered trademark) (116-8, Neuro Probe). A2058 human melanoma cells (obtained from European Collection of Cell Culture) were cultured in a serum-free EMEM medium for 24 hours, and were re-suspended in a 0.1% BSA-containing DMEM medium to give a cell suspension. The test compounds dissolved in DMSO in various concentrations were each added to the cell suspension, and the suspensions were cultured at 37° C. for 15 minutes (final DMSO concentration 0.5%). LPA dissolved in a 0.1% BSA-containing DMEM medium (final concentration 100 nM) was added to a Chemo-Tx 96 well plate, and a Chemo-Tx filter coated with 0.001% Fibronectin on both sides was placed onto the plate. The cultured cell suspensions (25,000 cells) were added onto the upper surface of the filter and were further cultured at 37° C. for 3 hours. Thereafter, the cells on the upper surface of the filter were removed. After the filter was removed and was dried, the cells which had migrated to the lower surface of the filter were stained with Diff-Quik stain (16920, Sysmex). The absorbance of the filter (570 nm) was measured and the concentration (IC50) of the test compound required for 50% inhibition of the cell migration activity of LPA was determined by non-linear regression analysis using EXSAS (version 7.6.0, Arm Systex).

SMILES	IC50 [nM]
COc1cc(-c2sc(Cl)cc2NC(=O)O[C@H](C)c2ccccc2)ccc1-c1ccc(C2(C(=O)O)CC2)cc1 [Example 1, Sodium (R)-1-[4′-(5-chloro-3-{[(1-phenylethoxy)carbonyl]amino}thiophen-2-yl)-2′-methoxy-[1,1′-biphenyl]-4-yl]cyclopropanecarboxylate]	≤ 200
COc1cc(-c2sc(Cl)cc2NC(=O)O[C@H](C)c2cc(F)ccc2F)ccc1-c1ccc(C2(C(=O)O)CC2)cc1 [Example 4, Sodium (R)-1-{4′-[5-chloro-3-({[1-(2,5-difluorophenyl)ethoxy]carbonyl}amino)thiophen-2-yl]-2′-methoxy-[1,1′-biphenyl]-4-yl}cyclopropanecarboxylate]	≤ 200
COc1cc(-c2sc(F)cc2NC(=O)O[C@H](C)c2ccccc2Cl)ccc1-c1ccc(C2(C(=O)O)CC2)cc1 [Example 7, Sodium (R)-1-{4′-[3-({[1-(2-chlorophenyl)ethoxy]carbonyl}amino)-5-fluorothiophen-2-yl]-2′-methoxy-[1,1′-biphenyl]-4-yl}cyclopropanecarboxylate]	≤ 200
C[C@@H](OC(=O)Nc1cc(Cl)sc1-c1ccc(-c2ccc(C3(C(=O)O)CC3)cc2)cc1)c1ccsc1 [Example 10, Sodium (R)-1-{4′-[5-chloro-3-({[1-(thiophen-3-yl)ethoxy]carbonyl}amino)thiophen-2-yl]-[1,1′-biphenyl]-4-yl}cyclopropanecarboxylate]	≤ 200
Cc1cscc1[C@@H](C)OC(=O)Nc1cc(F)sc1-c1ccc(-c2ccc(C3(C(=O)O)CC3)cc2)cc1 [Example 13, Sodium (R)-1-{4′-[5-fluoro-3-({[1-(4-methylthiophen-3-yl)ethoxy]carbonyl}amino)thiophen-2-yl]-[1,1′-biphenyl]-4-yl}cyclopropanecarboxylate]	≤ 200
